# Patent US7700792B2, “Highly active lysophosphatidic acid and method of screening therewith” (Ono Pharmaceutical Co., Ltd., priority 2003, dated 2010)
# How the values were obtained:
# isolated urethra of rat = experiment: Contraction-measuring system using an isolated urethra of rat; conditions: Magnus tube, urethra strips, control high concentration KCl
# Description: After sacrificing female or male CD (SD) IGS rats (Charles River Japan Inc., 8-9 week-old in use) by blowing heads and exsanguinating from carotid artery and jugular vein, urethra under pubis was isolated carefully and soaked in Krebs-Henseleit solution (112 mM NaCl, 5.9 mM KCl, 2.0 mM CaCl2, 1.2 mM MgCl2, 1.2 mM NaH2PO4, 25.0 mM NaHCO3, 11.5 mM Glucose) immediately. Urethra part was cut from isolated sample, and was dissected flatly and subsequently was cut parallel to circular muscle. Thus, 2-3 strips of sample that are 3-4 mm long by 2-3 mm wide were made from one animal.
# The made samples were suspended in the Magnus tube (volume: 10 mL) filled by Krebs-Henseleit solution (vented by 37±1° C., mixed gas [95% O2+5% CO2]). The samples were added about 0.5 g tension and stabilized for 60 min, and subsequently the contractile activity was recorded on recorder (lincarcoder WR3320: GRAPHTEC CORP.) via a pressure amplifier (AP-621G: Nihon Kohden Ltd) from Force displacement transducer (FD pick-up TB-611T; Nihon Kohden Ltd).
# The contractile reaction of control was given by stimulation of high concentration KCl solution (solution replaced all NaCl with KCl).
# Male CD (SD) IGS rats = experiment: Increasing urethral pressure measuring system under anesthesia of rat with urethane; type: in vivo; conditions: i.v., urethane-anesthetized rat
# Description: Male CD (SD) IGS rats (Charles River Japan Inc., 8-9 week-old in use) were anesthetized by subcutaneous administration of urethane (1.2 g/kg). After incision of cervical median, jugular catheter for administration of drug and arterial catheter for measurement of blood pressure were inserted. After incising of hypogastrium median, urethra was tied off in the vicinity of pubic bone. Urethra catheter was inserted into urethra by incision of dome of urinary bladder and fixed by ligation at the bladder neck. Urethra catheter was connected to the pressure tranducer and urethral pressure was measured. Subsequently, urethral pressure was adjusted about 20 mmHg and left until stabilizing (for about 20 minutes).
Compound,contracting effect on the isolated urethra of rat (isolated urethra of rat),increase of urethral pressure (Male CD (SD) IGS rats; 0.3 mg/kg),increase of urethral pressure (Male CD (SD) IGS rats; 1.0 mg/kg)
CCCCC[C@@H]1O[C@@H]1C[C@H]1O[C@H]1CCCCCCCC(=O)OC[C@H](O)COP(=O)(O)O [Example 1-1],contracting effect,5.4 mmHg,8.5 mmHg
"CCCCC/C=C\C/C=C\CCCCCCCC(=O)OC[C@@H](O)COP(=O)([O-])[O-].[Na+].[Na+] [1-linoleoyl(18:2)-LPA, D(+)-sn-1-o-linoleoyl-glyceryl-3-phosphate. sodium salt, reference compound]",–,0.6 mmHg,0.8 mmHg
